According to the supplement of paper PMC10307832:

How the values were obtained:
Experiment in all cases: relative viability (nuclei count vs DMSO), 5 days (fraction); higher = more cells survive
[1] = system: LXF-289
Summary of the method: (§1)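 Lung cancer cell lines were pin-tool dosed in 1536-well plates on the day after seeding, with either a lone drug or a fixed anchor-drug dose plus five library-drug doses (not always all listed) in √10 steps. Nuclei were counted on 4× images after 5 days. Relative viability is the ratio of treated-well to vehicle-well nuclei counts, with each value a median of duplicate plates.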

[2] = system: SW 1573
Summary of the method: as §1

[3] = system: NCI-H661
Summary of the method: as §1

[4] = system: NCI-H727
Summary of the method: as §1

[5] = system: PC-14
Summary of the method: as §1

[6] = system: NCI-H2023
Summary of the method: as §1

[7] = system: NCI-H2009
Summary of the method: as §1

[8] = system: EMC-BAC-2
Summary of the method: as §1

[9] = system: NCI-H2085
Summary of the method: as §1

[10] = system: NCI-H1915
Summary of the method: as §1

[11] = system: NCI-H647
Summary of the method: as §1

[12] = system: SK-LU-1
Summary of the method: as §1

For COc1cc(N2CCC(C(N)=O)CC2)ccc1Nc1nc(N)c(Cl)c(Nc2ccccc2S(=O)(=O)C(C)C)n1 [HG-5-88-01] + COc1cc2c(Oc3ccc(NC(=O)C4(C(=O)Nc5ccc(F)cc5)CC4)cc3F)ccnc2cc1OCCCN1CCOCC1 [Foretinib] (partner 0.25 µM), the relative viability ([1]; first compound 0.04 µM) was 1.04, the relative viability ([1]; first compound 0.1265 µM) was 0.937 and the relative viability ([1]; first compound 0.4 µM) was 0.977. It also gave a relative viability ([1]; first compound 1.265 µM) of 0.977, a relative viability ([1]; first compound 4 µM) of 1.05 and a relative viability ([2]; first compound 0.04 µM) of 0.868. The relative viability ([2]; first compound 0.1265 µM) was 0.816, the relative viability ([2]; first compound 0.4 µM) was 0.942 and the relative viability ([2]; first compound 1.265 µM) was 0.736. For the same compound, the relative viability ([2]; first compound 4 µM) was 0.624, the relative viability ([3]; first compound 0.04 µM) was 1.01 and the relative viability ([3]; first compound 0.1265 µM) was 1.05. It also gave a relative viability ([3]; first compound 0.4 µM) of 1.1, a relative viability ([3]; first compound 1.265 µM) of 1.03 and a relative viability ([3]; first compound 4 µM) of 1.09. For the same compound, the relative viability ([4]; first compound 0.04 µM) was 1.07, the relative viability ([4]; first compound 0.1265 µM) was 0.843 and the relative viability ([4]; first compound 0.4 µM) was 0.811. For the same compound, the relative viability ([4]; first compound 1.265 µM) was 0.55, the relative viability ([4]; first compound 4 µM) was 0.581 and the relative viability ([5]; first compound 0.04 µM) was 0.974. The relative viability ([5]; first compound 0.1265 µM) was 0.951, the relative viability ([5]; first compound 0.4 µM) was 0.806 and the relative viability ([5]; first compound 1.265 µM) was 0.804. For the same compound, the relative viability ([5]; first compound 4 µM) was 0.699, the relative viability ([6]; first compound 0.04 µM) was 1 and the relative viability ([6]; first compound 0.1265 µM) was 0.899. It also gave a relative viability ([6]; first compound 0.4 µM) of 0.628, a relative viability ([6]; first compound 1.265 µM) of 0.399 and a relative viability ([6]; first compound 4 µM) of 0.507. It also gave a relative viability ([7]; first compound 0.04 µM) of 1.18, a relative viability ([7]; first compound 0.1265 µM) of 1.25 and a relative viability ([7]; first compound 0.4 µM) of 1.14. For the same compound, the relative viability ([7]; first compound 1.265 µM) was 1.14, the relative viability ([7]; first compound 4 µM) was 1.24 and the relative viability ([8]; first compound 0.04 µM) was 1.06. For the same compound, the relative viability ([8]; first compound 0.1265 µM) was 1.09, the relative viability ([8]; first compound 0.4 µM) was 0.973 and the relative viability ([8]; first compound 1.265 µM) was 0.787. The relative viability ([8]; first compound 4 µM) was 0.795, the relative viability ([9]; first compound 0.04 µM) was 0.852 and the relative viability ([9]; first compound 0.1265 µM) was 0.947. It also gave a relative viability ([9]; first compound 0.4 µM) of 0.907, a relative viability ([9]; first compound 1.265 µM) of 0.704 and a relative viability ([9]; first compound 4 µM) of 0.807. It also gave a relative viability ([10]; first compound 0.04 µM) of 1.22, a relative viability ([10]; first compound 0.1265 µM) of 1.22 and a relative viability ([10]; first compound 0.4 µM) of 1.04. The relative viability ([10]; first compound 1.265 µM) was 1.2, the relative viability ([10]; first compound 4 µM) was 1.04 and the relative viability ([11]; first compound 0.04 µM) was 1.33. For the same compound, the relative viability ([11]; first compound 0.1265 µM) was 1.07, the relative viability ([11]; first compound 0.4 µM) was 1.28 and the relative viability ([11]; first compound 1.265 µM) was 1.05. The relative viability ([11]; first compound 4 µM) was 1.31, the relative viability ([12]; first compound 0.04 µM) was 0.839 and the relative viability ([12]; first compound 0.1265 µM) was 0.834. The relative viability ([12]; first compound 0.4 µM) was 0.751.
